Assays:
HDAC6 = target: T1, HDAC6 (Homo sapiens, UniProt Q9UBN7); experiment: In vitro HDAC inhibitory activity assay, recombinant HDAC6 (fluorogenic substrate ZMAL); assay type: biochemical; design: purchased BPS Biosciences
T1 sequence (Q9UBN7 1-1215): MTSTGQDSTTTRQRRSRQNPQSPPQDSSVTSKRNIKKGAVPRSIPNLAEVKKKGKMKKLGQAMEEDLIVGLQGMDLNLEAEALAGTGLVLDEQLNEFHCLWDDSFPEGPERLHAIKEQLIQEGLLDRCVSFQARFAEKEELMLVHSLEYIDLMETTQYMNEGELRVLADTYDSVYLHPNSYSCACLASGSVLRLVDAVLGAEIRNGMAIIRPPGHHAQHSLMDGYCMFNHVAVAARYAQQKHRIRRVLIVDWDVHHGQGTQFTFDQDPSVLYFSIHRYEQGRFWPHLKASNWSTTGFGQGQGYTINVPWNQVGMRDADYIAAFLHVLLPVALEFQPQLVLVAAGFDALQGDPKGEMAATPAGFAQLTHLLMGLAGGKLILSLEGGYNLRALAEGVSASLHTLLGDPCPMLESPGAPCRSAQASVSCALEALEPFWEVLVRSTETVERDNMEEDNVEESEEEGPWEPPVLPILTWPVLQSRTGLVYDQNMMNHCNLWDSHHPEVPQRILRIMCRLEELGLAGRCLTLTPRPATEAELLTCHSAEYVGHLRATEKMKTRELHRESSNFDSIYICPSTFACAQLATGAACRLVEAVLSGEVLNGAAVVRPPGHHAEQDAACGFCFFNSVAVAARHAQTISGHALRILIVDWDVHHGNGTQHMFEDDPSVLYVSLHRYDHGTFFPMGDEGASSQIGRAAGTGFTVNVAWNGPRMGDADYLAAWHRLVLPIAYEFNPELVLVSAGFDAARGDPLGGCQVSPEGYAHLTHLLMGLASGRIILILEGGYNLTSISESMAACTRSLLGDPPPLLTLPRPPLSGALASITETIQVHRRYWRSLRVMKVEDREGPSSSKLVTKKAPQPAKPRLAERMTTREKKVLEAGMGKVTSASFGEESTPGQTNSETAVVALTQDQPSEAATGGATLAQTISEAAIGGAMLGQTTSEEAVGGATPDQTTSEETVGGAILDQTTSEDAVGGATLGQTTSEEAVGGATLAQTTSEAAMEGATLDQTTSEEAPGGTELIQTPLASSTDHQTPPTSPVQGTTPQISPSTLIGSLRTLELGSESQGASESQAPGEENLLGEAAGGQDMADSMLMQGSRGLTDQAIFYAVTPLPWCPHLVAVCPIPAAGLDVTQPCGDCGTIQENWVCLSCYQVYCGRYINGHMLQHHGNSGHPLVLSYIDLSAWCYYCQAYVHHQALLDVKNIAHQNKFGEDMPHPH
Protocol: (§1) The in vitro testing on recombinant HDACs was performed as previously described. Recombinant human HDAC1 and −6 were purchased from BPS Biosciences. The enzyme inhibition was determined by using a reported homogenous fluorescence assay. […] Fluorescence intensity was measured at an excitation wavelength of 390 nm and an emission wavelength of 460 nm in a microtiter plate reader (BMG Polarstar).
(§2) Inhibition was measured at increasing concentration and IC50 was calculated by nonlinear regression with Origin 9.0G software.

HDAC1 = HDAC1 (Homo sapiens, UniProt Q13547); experiment: In vitro HDAC inhibitory activity assay, recombinant HDAC1 (fluorogenic substrate ZMAL); assay type: biochemical; design: purchased BPS Biosciences
Sequence of HDAC1 (Q13547 whole entry): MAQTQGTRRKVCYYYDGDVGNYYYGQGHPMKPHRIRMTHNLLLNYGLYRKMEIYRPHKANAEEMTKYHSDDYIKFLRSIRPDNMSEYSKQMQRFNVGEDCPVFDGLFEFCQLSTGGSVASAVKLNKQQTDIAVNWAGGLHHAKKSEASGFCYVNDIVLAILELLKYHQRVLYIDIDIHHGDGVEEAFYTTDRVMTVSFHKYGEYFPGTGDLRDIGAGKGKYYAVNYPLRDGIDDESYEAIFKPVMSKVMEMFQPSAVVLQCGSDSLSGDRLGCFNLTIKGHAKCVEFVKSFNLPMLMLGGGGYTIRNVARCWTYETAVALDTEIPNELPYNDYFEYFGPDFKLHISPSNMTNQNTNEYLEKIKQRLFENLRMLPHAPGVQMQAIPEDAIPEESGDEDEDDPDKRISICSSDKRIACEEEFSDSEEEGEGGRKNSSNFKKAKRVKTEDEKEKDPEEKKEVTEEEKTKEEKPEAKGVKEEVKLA
Protocol: as §1, §2

acetylated SMC3 = experiment: Acetylation of HDAC8 substrate SMC3 in SK-N-BE(2)-C cells (Western blot); assay type: cell-based, human; details: 10 µM
Protocol: To test the degradation of HDAC8 with the developed PROTACs, we selected the most promising compounds obtained from the cellular neuroblastoma testing; namely CRBN_1b, CRBN_1d, CRBN_1e, HyT_1m, and HyT_1p. Whole cell lysates from treated SK-N-BE(2)-C neuroblastoma cells were taken and the protein levels for HDAC8 and the acetylation of its substrate SMC3 were determined (Figure 6). As a control for HDAC6, we also assessed acetylation levels of α-tubulin. […]. A clear dose-dependent degradation of HDAC8 by PROTAC CRBN_1e was observed (Figure 6C). After 48 h, the HDAC8 protein level was back to baseline, presumably due to de novo protein synthesis. […]. Western blot analysis was performed as described previously (Kolbinger et al.). […]
Figure 6 (A) SK-N-BE(2)-C neuroblastoma cells were treated for indicated time points with 10 µM of PROTACs. Degradation of HDAC8 and acetylation of HDAC8 target was analyzed via Western blot. […] Acetylation of HDAC8 target SMC3 and HDAC6 target tubulin, as well as total HDAC8 levels, were assessed by Western blot. Quantified ac-SMC3 or ac-tubulin expression, respectively, was normalized to the respective tubulin loading control and to the solvent control (DMSO). This quantification is reflected by the numbers below each blot. […] Total HDAC6, total HDAC1, total HDAC8, and acetyl-histone H4 expression levels, were assessed by Western blot. […]

IMR-32 cells = experiment: Cell viability / proliferation (trypan blue, viable cell count) in neuroblastoma cells; assay type: cell-based, human; details: 5 and 10 µM
Protocol: Moreover, we treated neuroblastoma IMR-32 cells with the remaining PROTACs and counted the resulting viable cells. We quantified the percentage of dead cells as shown in (Figure 5B,C). In addition, cell proliferation was assessed via counting of viable cells (Figure 5D,E). […] As reference, the HDAC8 inhibitor PCI-34501 was used.
Adherent cells were detached using trypsin–EDTA (ThermoFisher Scientific, Bremen, Germany) and pooled with corresponding supernatant, centrifuged, and resuspended in 1 mL of cell culture medium. Cell viability (viable cell number, % viability, % dead cells) was measured by automated trypan blue staining using the Vi-Cell XR Cell Viability Analyzer (Beckman Coulter, Krefeld, Germany).
Figure 5 (A) Neuroblastoma SK-N-BE(2)-C cells; Colony Assay, 10 days (compound treatment within first 96 h). Stained with crystal violet and quantified with ImageJ. (B,C) Trypan Blue assay for detection of dead cells. Neuroblastoma IMR-32 cells were either treated with 5 µM (B) or 10 µM (C). (D,E) Cell proliferation assessed via counting of viable cells. IMR-32 cells were either treated with 5 µM (D) or 10 µM (E) PROTACs. HDAC8i PCI-34501 served as a positive control, untreated (MEM) and solvent (DMSO) treated cells served as negative controls.

inhibition at 1 µM (HDAC6; 1 µM, read-out: HDAC6 % inhib. at given conc.) [%]	inhibition at 10 µM (HDAC6; 10 µM, read-out: HDAC6 % inhib. at given conc.) [%]	inhibition at 1 µM (HDAC1; 1 µM, read-out: HDAC1 % inhib. at given conc.) [%]	inhibition at 10 µM (HDAC1; 10 µM, read-out: HDAC1 % inhib. at given conc.) [%]	SMILES	HDAC6 inhibitory activity (HDAC6; negative control)	HDAC1 inhibitory activity (HDAC1; negative control)	Hyperacetylation of HDAC8 substrate SMC3 (acetylated SMC3)	IC50 (HDAC6) [nM]	Effect in cell proliferation assay (viable cell count) (IMR-32 cells)	IC50 (HDAC1) [nM]
				COC(=O)c1ccc(C)c(NCc2ccc(OCc3cn(CCCCCC(=O)Nc4cccc5c4C(=O)N(C4CCC(=O)NC4=O)C5=O)nn3)cc2)c1 (centres unmarked) [33a]	did not demonstrate a strong inhibitory activity	did not demonstrate a strong inhibitory activity	did not show hyperacetylation			
				COc1ccc(C(=O)NO)cc1NC(=O)c1ccc(NC(=O)CCCCCCCNc2cccc3c2C(=O)N(C2CCC(=O)NC2=O)C3=O)cc1 (centres unmarked) [CRBN_1b]				560 ± 100	strongest effect	> 20000
12.4	72.8	2.3	40	O=C(COc1ccc(CNc2cc(C(=O)NO)ccc2Cl)cc1)NCCCCCNC(=O)CC12CC3CC(CC(C3)C1)C2 [HyT_1p]					strongest effect	

Source: publication PMC9322761, “Design, Synthesis and Biological Characterization of Histone Deacetylase 8 (HDAC8) Proteolysis Targeting Chimeras (PROTACs) with Anti-Neuroblastoma Activity” (International Journal of Molecular Sciences, 2022)
